{
  "source": "patent US20250312469A1",
  "about": "(CANGET BIOTEKPHARMA, priority 2024, published 2025)",
  "key": {"[1]": {"assay": "Plasma protein binding (RED)", "conditions": "both, human, % Bound of Plasma, Test Article (FL118), 37° C."}, "[2]": {"tested_on": "pancreatic cancer PDX tumor (PDX14244) tissues", "assay": "Ex vivo culture of pancreatic cancer PDX tumor tissue", "format": "cell-based, human", "conditions": "7 days", "description": "Pancreatic cancer patient-derived xenograft (PDX) tumor (PDX14244) in vitro culture and studies: PDX14244 tumors were collected from SCID mice, and the isolated tumors were maintained in PBS solution. Then cut the fresh tumor tissues into many small pieces (e.g., 2×2×2 mm) and the left tumors were frozen for other use. The small pieces of tumor tissues were washed twice in PBS and then added onto the stiff gel prepared at the ratio of gel: PBS=1:1 in the 24-well plate (2-3 pieces per well). […] On day 3, replace the old medium content with freshly prepared same medium content. On day 7, the cultured PDX14244 tumor tissues were taken out and representative images were taken under microscopes, and the tumor tissues were transferred into a fresh 24-well plate and immediately fixed in 10% neutral buffered formalin (NBF) for 24 hours ad then replaced NBF with 70% ethanol for 1-4 days for paraffin embedding to make block cassettes for histology analysis. Tissue blocks were cut and H&E staining for tumor tissue stroma ECM stiffness (desmoplasia) observation."}, "ABCG2/BCRP": {"target": "T1, ABCG2/BCRP (Homo sapiens, UniProt Q9UNQ0)", "T1 sequence (Q9UNQ0 1-655)": "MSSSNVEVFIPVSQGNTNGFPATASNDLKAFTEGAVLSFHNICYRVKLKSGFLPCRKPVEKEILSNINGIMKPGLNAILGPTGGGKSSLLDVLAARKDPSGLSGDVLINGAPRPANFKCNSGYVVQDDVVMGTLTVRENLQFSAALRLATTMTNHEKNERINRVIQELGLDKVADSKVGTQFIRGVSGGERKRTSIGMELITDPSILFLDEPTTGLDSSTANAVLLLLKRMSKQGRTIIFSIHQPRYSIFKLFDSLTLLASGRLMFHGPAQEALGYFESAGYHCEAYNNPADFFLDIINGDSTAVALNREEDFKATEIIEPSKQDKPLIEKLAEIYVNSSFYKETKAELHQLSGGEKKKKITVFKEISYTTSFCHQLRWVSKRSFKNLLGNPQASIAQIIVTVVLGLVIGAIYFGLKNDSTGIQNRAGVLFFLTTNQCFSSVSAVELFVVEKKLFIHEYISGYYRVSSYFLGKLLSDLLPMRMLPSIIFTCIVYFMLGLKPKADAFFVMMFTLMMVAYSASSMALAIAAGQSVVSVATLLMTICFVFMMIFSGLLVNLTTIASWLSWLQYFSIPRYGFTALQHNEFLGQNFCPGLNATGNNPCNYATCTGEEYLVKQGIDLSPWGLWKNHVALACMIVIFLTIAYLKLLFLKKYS", "assay": "ABCG2/BCRP inhibition (BCRP-MDCK, cladribine)", "description": "After 30 minutes the buffer was removed, replaced with fresh dosing solution/assay buffer, and time was recorded as 0. […] Each determination was performed in duplicate. […] Analytical conditions are outlined in Appendix 1."}, "[3]": {"tested_on": "pancreatic cancer PDX14244 or PDX17624 tumors", "assay": "Western blots of pancreatic cancer PDX tumors after oral treatment", "format": "in vivo, SCID mice", "conditions": "5 mg/kg oral; day 1-3", "description": "The collected tumor tissues were then homogenized with untrasound and analyzed using the corresponding antibodies for DDX5, Agrin, YAP1, p-FAK, FAK, Integrin and Actin via Western blots. Actin expression is the internal control of total protein loading.\nFor frozen prostate cancer tissue specimens and their adjacent non-tumor tissues (if any) obtained from Roswell Park pathology network, 30-50 mg of each tissue in a 1.5 Eppendorf tube containing 500 μL of 2×SDS lysis buffer containing Tris pH 6.8+4% SDS+10% Glycerol were homogenized through ultrasound treatment for 10-15 second per time with 3-6 times until tumor tissue was lysed. After all tissues were processed, 1.5 mL tubes were centrifuged at 13,000 rom in a microcentrifuge for 1-2 min and then the supernatant in each tube was transferred into a new 1.5 mL tube for protein concentration measurement (refer to the section of “Studies with Human patient tumor specimens” for more information). […] Proteins of interest were detected using Western Lightning ECL-Plus (Perkin Elmer, Waltham, MA) and visualized by various times (3-120 seconds) of exposure. Actin, tubulin and/or GAPDH were detected as the internal control to normalize total protein loading for each sample."}, "[4]": {"tested_on": "Agrin and its downstream targets", "assay": "Western blots of Agrin and downstream targets in pancreatic cancer cell lines", "format": "cell-based, human", "description": "For frozen prostate cancer tissue specimens and their adjacent non-tumor tissues (if any) obtained from Roswell Park pathology network, 30-50 mg of each tissue in a 1.5 Eppendorf tube containing 500 μL of 2×SDS lysis buffer containing Tris pH 6.8+4% SDS+10% Glycerol were homogenized through ultrasound treatment for 10-15 second per time with 3-6 times until tumor tissue was lysed. After all tissues were processed, 1.5 mL tubes were centrifuged at 13,000 rom in a microcentrifuge for 1-2 min and then the supernatant in each tube was transferred into a new 1.5 mL tube for protein concentration measurement (refer to the section of “Studies with Human patient tumor specimens” for more information). Twenty to fifty μg total protein from each sample (cell lysis or tumor tissue lysis) were heated at 95° C. for 5 minutes after mixing with equal volumes of 2× SDS loading buffer. […] The membrane was then blocked in 5% skim milk in TBS-T buffer (20 mM Tris/HCl pH 7.5, 0.137 M NaCl, and 0.1% Tween 20) at room temperature for 2-3h. […] Proteins of interest were detected using Western Lightning ECL-Plus (Perkin Elmer, Waltham, MA) and visualized by various times (3-120 seconds) of exposure. Actin, tubulin and/or GAPDH were detected as the internal control to normalize total protein loading for each sample."}, "CRPC LAPC9 tumors": {"tested_on": "CRPC LAPC9 tumors", "assay": "LAPC9 CRPC tumor model", "format": "in vivo, SCID mice", "conditions": "8 mg/kg orally once per week, 2 times"}, "DU145 xenografts": {"tested_on": "DU145 xenografts", "assay": "DU145 xenograft tumor model", "conditions": "8 mg/kg oral, weekly×4"}, "[5]": {"assay": "FL118 drug substance chemical stability (HPLC)"}, "[6]": {"tested_on": "Panc-1 and MiaPaca-2 cells", "assay": "3D cell spheroid formation and viability", "format": "cell-based, human", "description": "3D) cell spheroid formation studies: Pancreatic cancer cells were cultured in the ultra-low attachment plates in the pancreatic cancer organoid culture medium. In some studies, to observe the spheroid formation, DDX5 KO pancreatic cancer cells in the presence and absence of Agrin at a concentration of 2.5 μg/mL, 5 μg/mL and/or 10 μg/mL for 6-7 days were cultured. […] Representative images were take during this time and cell viability was determined by MTT assay."}},
  "note": "Several values for one entry are separate records, joined by “and”; a condition that tells them apart may be missing. Equal entries are not always repeated.",
  "data": [
    {"molecule": "CCC1(O)C(=O)OCc2c1cc1n(c2=O)Cc2cc3cc4c(cc3nc2-1)OCO4", "note": "(centres unmarked) [FL118]", "values": [
      {"measurement": "fraction unbound at 4 h, 1 μM", "setting": "[1]", "result": "< 0.01"},
      {"measurement": "cell and stroma spreading from tissue edge", "setting": "[2]", "result": "effectively inhibit the pancreatic cancer cells and stroma spreading"},
      {"measurement": "tumor stroma intensity (H&E)", "setting": "[2]", "result": "significantly tumor stroma intensity loose"},
      {"measurement": "inhibition of BCRP transport of cladribine", "setting": "ABCG2/BCRP; 1.0 μM FL118", "result": "does not inhibit cladribine acting as a BCRP substrate"},
      {"measurement": "BCRP Inhibition Potential Classification", "setting": "ABCG2/BCRP; BCRP-MDCK, cladribine as substrate, 1.0 μM FL118 or 0.5 μM Ko143", "result": "Negative (without inhibitor, and reduced by <50 with inhibitor: Negative)"},
      {"measurement": "DDX5, Agrin, YAP1, p-FAK, Integrin in PDX tumors", "setting": "[3]", "result": "more profound decrease"},
      {"measurement": "DDX5, Agrin, YAP1, Integrin expression and FAK phosphorylation", "setting": "[4]; Mia Paca-2, Panc-1, BxPC-3, 10, 100, 500 nM", "result": "inhibits the expression of DDX5, Agrin, YAP1 and Integrin as well as the FAK phosphorylation status"},
      {"measurement": "Agrin and YAP1 proteins", "setting": "[4]; Panc-1 cells", "result": "inhibits Agrin and YAP1 proteins"},
      {"measurement": "antitumor efficacy", "setting": "CRPC LAPC9 tumors", "result": "sensitive to FL118"},
      {"measurement": "antitumor efficacy", "setting": "DU145 xenografts", "result": "well inhibited"},
      {"measurement": "Hygroscope", "setting": "[5]", "result": "0.07% and 0.20% and 0.38%"},
      {"measurement": "purity and impurity retest", "setting": "[5]", "result": "still well passing the purity and impurity requirement"},
      {"measurement": "3D spheroid formation", "setting": "[6]", "result": "inhibited"},
      {"measurement": "cell viability in 3D culture", "setting": "[6]", "result": "inhibited in a FL118 concentration-dependent manner"}
    ]}
  ]
}
